Values of other authors, collected in patent US9370164B2, “Breeding, production, processing and use of specialty Cannabis” (Biotech Institute LLC, priority 2013, dated 2016).
Like-named read-outs stand apart in the source and are kept apart here.

Assays:
[1] = for Pharmacological Action: Anti-emetic: indication: CIE; for Pharmacological Action: Antidepressant: indication: Depression; for Pharmacological Action: Intestinal Anti-prokinetic: indication: Diarrhea; for Pharmacological Action: Anti-epileptic: indication: Epilepsy; for Pharmacological Action: Vasorelaxant: indication: Glaucoma; for Pharmacological Action: Muscle relaxant: indication: MS; for Pharmacological Action: Sedative: indication: Sleep disorders; for Pharmacological Action: Immunosuppressive: indications: Allergies, RA, IBS; for Pharmacological Action: Immunosuppressive / Pharmacological Action: Anti-inflammatory / Pharmacological Action: Neuroprotective: MS; for Pharmacological Action: Bronchodialator: indications: Asthma, Sleep-related breathing disorders; for Pharmacological Action: Analgesic / Pharmacological Action: Anti-spasmodic: indications: MS; for Pharmacological Action: Analgesic: Post-operative pain, Migraine, Neuropathic pain, Sciatica; for Pharmacological Action: Anti-spasmodic: Spinal cord injury, Cerebral palsy; for Pharmacological Action: Anti-inflammatory: indications: Pain, Chron's, Arthritis; for Pharmacological Action: Anxiolytic: indications: Panic Disorder, Social Anxiety Disorder, Generalized Anxiety Disorder, PTSD; for Pharmacological Action: Neuroprotective: indications: Parkinson's, Alzheimer's, Stroke
[2] = for Proposed mechanism, Analgesic: post-operative pain

SMILES | Pharmacological Action: Antidepressant [1] | Pharmacological Action: Anti-epileptic [1] | Pharmacological Action: Sedative [1] | Pharmacological Action: Analgesic [1] | Pharmacological Action: Anti-inflammatory [1] | Pharmacological Action: Anxiolytic [1] | Proposed mechanism, Anti-inflammatory [2] | other results
CCCCCc1cc(O)c2c(c1)OC(C)(C)[C@@H]1CCC(C)=C[C@@H]21 [THC] | ✓ | ✓ | ✓ | ✓ | ✓ | ✓ | (+)PPARg | Pharmacological Action: Anti-emetic [1]: ✓; Pharmacological Action: Intestinal Anti-prokinetic [1]: ✓; Pharmacological Action: Vasorelaxant [1]: ✓; Pharmacological Action: Muscle relaxant [1]: ✓; Pharmacological Action: Immunosuppressive [1]: ✓; Pharmacological Action: Appetite Stimulant ([1]; indications: Anorexia, Cachexia, AIDS wasting): ✓; Pharmacological Action: Bronchodialator [1]: ✓; Pharmacological Action: Anti-spasmodic [1]: ✓; Pharmacological Action: Neuroprotective [1]: ✓; Proposed mechanism, Anti-proliferative [2]: (−)TRPM8; Proposed mechanism, Appetite Stimulant ([2]; Appetite Stimulant): (+)PPARg; Proposed mechanism, Vasorelaxant [2]: (+)PPARg
CCCCCc1cc(O)c2c(c1)OC(C)(CCC=C(C)C)C=C2 (stereo not drawn) [CBC] | – | – | – | ✓ | ✓ | – | – | –
C=CC(=C)CCC=C(C)C [b-myrcene] | – | – | ✓ | ✓ | ✓ | – | PGE2 | –
CCCCCc1cc(O)c2c(c1)OC(C)(C)c1ccc(C)cc1-2 [CBN] | – | – | ✓ | ✓ | – | – | – | –
CC1=CCC2CC1C2(C)C (stereo not drawn) [a-pinene] | – | – | – | – | ✓ | – | PGE1 | Pharmacological Action: Bronchodialator [1]: ✓
C=C(C)[C@@H]1CCC(C)=C[C@H]1c1c(O)cc(CCCCC)cc1O [CBD] | ✓ | ✓ | ✓ | ✓ | ✓ | ✓ | – | Pharmacological Action: Anti-emetic [1]: ✓; Pharmacological Action: Intestinal Anti-prokinetic [1]: ✓; Pharmacological Action: Vasorelaxant [1]: ✓; Pharmacological Action: Immunosuppressive [1]: ✓; Pharmacological Action: Anti-spasmodic [1]: ✓; Pharmacological Action: Neuroprotective [1]: ✓; Proposed mechanism, Analgesic [2]: (+)TRPA1; Proposed mechanism, Anti-epileptic [2]: (+)5HT1A; Proposed mechanism, Anti-psychotic ([2]; Anti-psychotic): (+)TRPV1; Proposed mechanism, Anxiolytic ([2]; panic disorder): (+)5HT1A; Proposed mechanism, Anxiolytic ([2]; social anxiety disorder): (+)CB1; Proposed mechanism, Intestinal Anti-prokinetic ([2]; Intestinal Anti-prokinetic): (−)Ca1; Proposed mechanism, Vasorelaxant [2]: (+)PPARg
CCCc1cc(O)c2c(c1)OC(C)(C)[C@@H]1CCC(C)=C[C@@H]21 [THCV] | – | ✓ | – | – | – | – | – | Proposed mechanism, Anti-epileptic [2]: (−)CB1
C=C1CC/C=C(\C)CC[C@@H]2[C@@H]1CC2(C)C [b-caryophyl.] | – | – | – | – | ✓ | – | PGE1 | –
C=CC(C)(O)CCC=C(C)C (stereo not drawn) [Linalool] | – | ✓ | ✓ | ✓ | – | ✓ | – | Proposed mechanism, Anti-epileptic [2]: anti-Glu
C=C(C)[C@H]1CC=C(C)CC1 [Limonene] | ✓ | – | – | – | – | ✓ | – | –
CCCCCc1cc(O)c(C/C=C(\C)CCC=C(C)C)c(O)c1 [CBG] | ✓ | ✓ | – | ✓ | – | ✓ | – | Pharmacological Action: Muscle relaxant [1]: ✓; Pharmacological Action: Anti-spasmodic [1]: ✓; Proposed mechanism, Analgesic [2]: (+)TRPA1; Proposed mechanism, Anti-proliferative [2]: (−)TRPM8; Proposed mechanism, Antidepressant ([2]; Antidepressant): (−)5HT1A
